According to patent US4421767A, “Compounds and methods for treating depression” (priority 1982, dated 1983):

System: brain noradrenaline and 5-HT concentrations
Assay: Brain amine concentration after 5 days oral MAO inhibitor in rats (Table I)
Type: in vivo, rat
Details: for Brain Amine Concentration, Noradrenaline / Brain Amine Concentration, 5-HT: 5 days
Experimental: On the 6th day, rats were anaesthetized and heart rate and blood pressure responses to tyramine (0.3-50 mg/kg) administered intraduodenally (i.d.) were determined. Additionally, monoamines and MAO activity were determined in various tissues including brain.

NC(C(=O)O)C(=CF)c1cccc(O)c1 (racemic) [AFHBA, 2-Amino-4-fluoro-3-(3'-hydroxyphenyl)-3-butenoic acid]
Brain Amine Concentration, Noradrenaline (AFHBA 15.6 μg/kg daily p.o., saline 318 ± 12): 347 ± 9 ng/g
Brain Amine Concentration, 5-HT (AFHBA 15.6 μg/kg daily p.o., saline 507 ± 18): 530 ± 27 ng/g
Brain Amine Concentration, 5-HT (AFHBA 62.5 μg/kg daily p.o.): 531 ± 32 ng/g
Brain Amine Concentration, Noradrenaline (AFHBA 62.5 μg/kg daily p.o.): 391 ± 12 ng/g
Brain Amine Concentration, 5-HT (AFHBA 250 μg/kg daily p.o.): 1082 ± 98 ng/g
Brain Amine Concentration, Noradrenaline (AFHBA 250 μg/kg daily p.o.): 563 ± 23 ng/g
Brain Amine Concentration, 5-HT (AFHBA 1000 μg/kg daily p.o.): 1486 ± 67 ng/g
Brain Amine Concentration, Noradrenaline (AFHBA 1000 μg/kg daily p.o.): 650 ± 29 ng/g
brain noradrenaline and 5-HT concentrations (dose relation) (subacute treatment): dose-related increases in brain noradrenaline and 5-HT concentrations
